# Test results reported in US20030161862A1, “Bacterial growth regulators or inhibitors with the use of 1,5-d-anhydrofructose” (priority 2000, published 2003).
# “Also recorded” adds a separate entry of the source.
# Key:
# Type in all cases: cell-based
# [1] = system: Pseudomonas aeruginosa IFO 12689; assay: growth suppression/inhibition on agar media, colonies observed visually; settings: agar medium pH 7.0, 37° C. one night; BHA 0.5%, BHT 0.5%, 1,5-D-anhydrofructose 1%
# [2] = system: Streptococcus eqinus ATCC 9812; assay: as above; settings: agar medium pH 7.0, 37° C. one night; BHA 0.5%, BHT 0.5%, 1,5-D-anhydrofructose 1%
# [3] = system: Proteus vulgaris IFO 3851; assay: as above
# Procedure: (§1) Under the circumstances, influences on growth of a variety of bacteria in the presence of 1,5-D-anhydrofructose with or without sodium ascorbate which is a typical antioxidant to be used in food and beverages were examined.
# (§2) After the bacterial strains were suspended in physiological salt solutions, they were inoculated into agar media (each containing 0.25% of yeast extract, 0.5% of polypeptone, […]) with platinum loops and then cultured at 37° C. until colonies were formed. Thereafter, the bacteria were inoculated, with sterilized toothpicks, from the colonies into agar media of the above composition each of which contained 1.0% of sodium ascorbate and 1.0% of 1,5-D-anhydrofructose, and into agar media of the above composition each of which contained 1.0% of 1,5-D-anhydrofructose and no sodium ascorbate. For controls, culture media of the same composition each of which contained neither sodium ascorbate nor 1,5-D-anhydrofructose and culture media of the same composition each of which contained 1.0% of sodium ascorbate and no 1,5-D-anhydrofructose were used. Abilities of sodium ascorbate and 1,5-D-anhydrofructose to suppress/inhibit growth of the bacteria were evaluated by visually observing the colonies formed after the bacteria were cultured at 37° C. for one night.
# (§3) The substances were used at concentrations shown in the legend of Table 4.
# (§4) Those cultured in the absence of the chelating agents, 1,5-D-anhydrofructose, sodium ascorbate and sodium erythorbate were taken as controls. As for an agar medium, a method for inoculating the bacteria, conditions for culturing the bacteria, and a method for evaluating a growth suppressing/inhibiting ability, they are the same as those used in the tests whose results are shown in Tables 2 and 3.
# [4] = system: Lactobacillus casei ATCC 393; assay: as above
# Procedure: as §1, §2, §3, §4
# [5] = system: Escherichia coli IFO 3301; assay: as above
# Procedure: as §1, §2, §3, §4
# Bacillus cereus IFO 3131 = assay: as above
# Procedure: as §1, §2, §3, §4
# [6] = system: Bacillus subtillis IFO 3009; assay: as above; settings: agar medium pH 7.0, 37° C. one night; BHA 0.5%, BHT 0.5%, 1,5-D-anhydrofructose 1%
# [7] = system: Enterobactor cloacae JCM 1232; assay: as above; settings: agar medium pH 7.0, 37° C. one night; BHA 0.5%, BHT 0.5%, 1,5-D-anhydrofructose 1%
# gram-positive bacteria = assay: minimum growth inhibitory concentration / growth inhibition in agar media; settings: 0.5%, used independently, agar medium pH 7.0
# Procedure: (§5) When a variety of bacteria are cultured in agar media in the presence of 1,5-D-anhydrofructose without any of an antioxidant or a chelating agent, a minimum growth inhibitory concentration of 1,5-D-anhydrofructose is 3.0 to 5.0% for gram-negative bacteria and 1.0 to 3.0% for gram-positive bacteria. Under the circumstances, influences on growth of a variety of bacteria in the presence of 1,5-D-anhydrofructose with or without sodium ascorbate which is a typical antioxidant to be used in food and beverages were examined.
# as §2, §3
# [8] = system: Bacillus subtillis IFO 3009; assay: growth suppression/inhibition on agar media, colonies observed visually; settings: agar medium pH 6.5, 37° C. one night
# Text: as §1
# (§6) After the bacterial strains were suspended in physiological salt solutions, they were inoculated into agar media (each containing 0.25% of yeast extract, 0.5% of polypeptone, 1.0% of glucose and 1.5% of soft agar and having a pH of 6.5) with platinum loops and then cultured at 37° C. until colonies were formed. Thereafter, the bacteria were inoculated, with sterilized toothpicks, from the colonies into agar media of the above composition each of which contained 1.0% of sodium ascorbate and 1.0% of 1,5-D-anhydrofructose, and into agar media of the above composition each of which contained 1.0% of 1,5-D-anhydrofructose and no sodium ascorbate. For controls, culture media of the same composition each of which contained neither sodium ascorbate nor 1,5-D-anhydrofructose and culture media of the same composition each of which contained 1.0% of sodium ascorbate and no 1,5-D-anhydrofructose were used. Abilities of sodium ascorbate and 1,5-D-anhydrofructose to suppress/inhibit growth of the bacteria were evaluated by visually observing the colonies formed after the bacteria were cultured at 37° C. for one night.
# as §3, §4
# [9] = system: Pseudomonas aeruginosa IFO 12689; assay: as above; settings: agar medium pH 6.5, 37° C. one night
# Text: as §1, §6, §3, §4
# [10] = system: Streptococcus eqinus ATCC 9812; assay: as above; settings: agar medium pH 6.5, 37° C. one night
# Text: as §1, §6, §3, §4
# [11] = system: Enterobactor cloacae JCM 1232; assay: as above; settings: agar medium pH 6.5, 37° C. one night
# Text: as §1, §6, §3, §4
# [12] = system: a variety of bacteria (strains of Table 1); assay: growth suppression on agar media, summary statements for all tested bacteria; settings: for effect of enhancing the growth suppressing effect of 1,5-D-anhydrofructose: co-presence with 1,5-D-anhydrofructose, no data shown; for growth suppressing ability when solely used: solely used at the concentrations of the tests (sodium ascorbate 1.0%, sodium erythorbate 0.2%, chelating agents 0.2-0.5%)
# Procedure: as §5, §6, §4
# [13] = agar medium pH 7.0, 37° C. one night, BHA 0.5%, BHT 0.5%, 1,5-D-anhydrofructose 1%
# [14] = agar medium pH 6.5, 37° C. one night, 1,5-D-anhydrofructose 1%, sodium citrate 0.5%, sodium polyphosphate 0.2%, sodium malate 0.5%, sodium gluconate 0.5%, sodium tartrate 0.5%, sodium ascorbate 1%, sodium erythorbate 0.2%
# [15] = 1,5-D-anhydrofructose 1%, sodium citrate 0.5%, sodium polyphosphate 0.2%, sodium malate 0.5%, sodium gluconate 0.5%, sodium tartrate 0.5%, sodium ascorbate 1%, sodium erythorbate 0.2%
# [16] = agar medium pH 6.5, 37° C. one night, sodium erythorbate 0.2%, 1,5-D-anhydrofructose 1%
# [17] = sodium erythorbate 0.2%, 1,5-D-anhydrofructose 1%
# [18] = agar medium pH 6.5, 37° C. one night, sodium ascorbate 1%, 1,5-D-anhydrofructose 1%
# [19] = sodium ascorbate 1%, 1,5-D-anhydrofructose 1%
Compound,"condition of the colonies [3, 14]","condition of the colonies [4, 14]","condition of the colonies [5, 14]",condition of the colonies (Bacillus cereus IFO 3131; [14]),"condition of the colonies [8, 15]","condition of the colonies [9, 15]","condition of the colonies [10, 15]","condition of the colonies [11, 15]",further results
"COc1ccc(O)c(C(C)(C)C)c1 [BHA, butylhydroxyanisol]",,,,,,,,,"condition of the colonies [1]: +; condition of the colonies [2]: −; condition of the colonies [3, 13]: −; condition of the colonies [4, 13]: −; condition of the colonies [5, 13]: −; condition of the colonies (Bacillus cereus IFO 3131; [13]): −; condition of the colonies [6]: −; condition of the colonies [7]: ±; growth inhibitory effect against gram-positive bacteria (gram-positive bacteria): exhibited a growth inhibitory effect against all of the examined gram-positive bacteria"
O=C([O-])C(O)C(O)C(=O)[O-].[Na+].[Na+] (stereo not shown) [sodium tartrate],+,+,+,+,+,+,+,+,
catechin,,,,,,,,,"effect of enhancing the growth suppressing effect of 1,5-D-anhydrofructose [12]: exhibit the above effect"
O=C1O[C@H]([C@H](O)CO)C([O-])=C1O.[Na+] [sodium erythorbate],+,+,+,+,+,+,+,+,"condition of the colonies [3, 16]: +; condition of the colonies [4, 16]: +; condition of the colonies [5, 16]: +; condition of the colonies (Bacillus cereus IFO 3131; [16]): +; growth suppressing ability when solely used [12]: do not inhibit growth of the bacteria; condition of the colonies [8, 17]: +; condition of the colonies [9, 17]: +; condition of the colonies [10, 17]: +; condition of the colonies [11, 17]: +"
"Cc1cc(C(C)(C)C)c(O)c(C(C)(C)C)c1 [BHT, dibutylhydroxytoluene]",,,,,,,,,"condition of the colonies [1]: +; condition of the colonies [2]: −; condition of the colonies [3, 13]: ±; condition of the colonies [4, 13]: −; condition of the colonies [5, 13]: +; condition of the colonies (Bacillus cereus IFO 3131; [13]): −; condition of the colonies [6]: −; condition of the colonies [7]: +; growth inhibitory effect against gram-positive bacteria (gram-positive bacteria): exhibited a growth inhibitory effect against all of the examined gram-positive bacteria"
tocopherol,,,,,,,,,"effect of enhancing the growth suppressing effect of 1,5-D-anhydrofructose [12]: exhibit the above effect"
O=C([O-])[C@H](O)[C@@H](O)[C@H](O)[C@H](O)CO.[Na+] [sodium gluconate],+,+,+,+,+,+,+,+,
O=C([O-])CC(O)C(=O)[O-].[Na+].[Na+] (stereo not shown) [sodium malate],+,+,+,+,+,+,+,+,
sodium polyphosphate,+,+,+,+,+,+,+,+,
O=C([O-])CC(O)(CC(=O)[O-])C(=O)[O-].[Na+].[Na+].[Na+] [sodium citrate],+,+,+,+,+,+,+,+,
O=C1O[C@H]([C@@H](O)CO)C([O-])=C1O.[Na+] [sodium ascorbate],+,+,+,+,+,+,+,+,"condition of the colonies [3, 18]: +; condition of the colonies [4, 18]: +; condition of the colonies [5, 18]: +; condition of the colonies (Bacillus cereus IFO 3131; [18]): +; growth suppressing ability when solely used [12]: does not have a growth suppressing ability against any of the bacteria; also recorded: do not inhibit growth of the bacteria; condition of the colonies [8, 19]: +; condition of the colonies [9, 19]: +; condition of the colonies [10, 19]: +; condition of the colonies [11, 19]: +"
